Measurements: EP4768484A1, “HETEROCYCLIC FUSED RING COMPOUND, AND COMPOSITION AND USE THEREOF” (Shenzhen TargetRx, Inc., priority 2023, dated 2025)

Key:
Format in all cases: cell-based
[1] = test system: K562 cells; experiment: Cell growth inhibitory activity assay (CellTiter-Glo), K562 cells; conditions: Homo sapiens, 72 h, CTG cell viability
Procedure, shortened: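 K562 cells in logarithmic growth were counted, diluted and plated in 96-well plates, with medium-only blanks and a separate T0 plate read by CTG the following day. After overnight incubation, graded compound concentrations were added for 72 h, with 0.5% DMSO wells as growth controls. Luminescence was read on a Biotek cytation3.0, and IC50 came from nonlinear fitting in GraphPad Prism 7.0.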

[2] = target: T1, Ba/F3 BCR-ABL1 WT (Homo sapiens, UniProt P00519+P11274); experiment: Cell growth inhibitory activity assay (CellTiter-Glo), Ba/F3 BCR-ABL1 WT cells; conditions: 72 h, CTG cell viability
T1 construct: BCR (N-terminal fusion partner of the oncoprotein); expressed in transfected cells; host or cells: Ba/F3 (lentiviral transduction, monoclonal line)
Procedure, shortened: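 Ba/F3 lines stably transduced by lentivirus with WT or mutant BCR-ABL1, alongside untransduced parental Ba/F3, were seeded and incubated overnight at 37 °C, 5% CO2, then exposed to serially diluted compound for 72 h. Viability was read as ATP by CellTiter-Glo luminescence against a day-of-dosing T0 plate; IC50 from four-parameter nonlinear fit.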

[3] = target: T2, Ba/F3 BCR-ABL1 T315I (Homo sapiens, UniProt P00519+P11274, T315I); experiment: Cell growth inhibitory activity assay (CellTiter-Glo), Ba/F3 BCR-ABL1 T315I cells; conditions: 72 h, CTG cell viability
T2 construct: BCR (N-terminal fusion partner of the oncoprotein); expressed in transfected cells; host or cells: Ba/F3 (lentiviral transduction, monoclonal line)
Procedure, shortened: (§1)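 IC50 values come from nonlinear fitting of % inhibition against log concentration, with viability taken as ATP content by CellTiter-Glo. Parental Ba/F3 or Ba/F3 monoclonal lines expressing lentivirally introduced mutant BCR-ABL1 were dosed for 72 h; controls included 0.5% DMSO wells and a T0 plate.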

[4] = target: T3, Ba/F3 BCR-ABL1 T315M (Homo sapiens, UniProt P00519+P11274, T315M); experiment: Cell growth inhibitory activity assay (CellTiter-Glo), Ba/F3 BCR-ABL1 T315M cells; conditions: 72 h, CTG cell viability
T3 construct: BCR (N-terminal fusion partner of the oncoprotein); expressed in transfected cells; host or cells: Ba/F3 (lentiviral transduction, monoclonal line)
Procedure, shortened: as §1

[5] = test system: Ba/F3 parental cells; experiment: Cell growth inhibitory activity assay (CellTiter-Glo), Ba/F3 parental cells; conditions: Mus musculus, BaF3, 72 h, CTG cell viability, read-out: IC50 Ba/F3 BCR-ABL1 Parental
Procedure, shortened: as §1

[6] = target: T4, Ba/F3 BCR-ABL1 Y253H/E255K (Homo sapiens, UniProt P00519+P11274, E255K/Y253H); experiment: Cell growth inhibitory activity assay (CellTiter-Glo), Ba/F3 BCR-ABL1 Y253H/E255K cells; conditions: 72 h, CTG cell viability
T4 construct: BCR (N-terminal fusion partner of the oncoprotein); expressed in transfected cells; host or cells: Ba/F3 (lentiviral transduction, monoclonal line)
Procedure, shortened: as §1

[7] = target: T5, Ba/F3 BCR-ABL1 E255V/T315I (Homo sapiens, UniProt P00519+P11274, E255V/T315I); experiment: Cell growth inhibitory activity assay (CellTiter-Glo), Ba/F3 BCR-ABL1 E255V/T315I cells; conditions: 72 h, CTG cell viability
T5 construct: BCR (N-terminal fusion partner of the oncoprotein); expressed in transfected cells; host or cells: Ba/F3 (lentiviral transduction, monoclonal line)
Procedure, shortened: as §1

[8] = target: T6, Ba/F3 BCR-ABL1 A424T (Homo sapiens, UniProt P00519+P11274, A424T); experiment: Cell growth inhibitory activity assay (CellTiter-Glo), Ba/F3 BCR-ABL1 A424T cells; conditions: 72 h, CTG cell viability
T6 construct: BCR (N-terminal fusion partner of the oncoprotein); expressed in transfected cells; host or cells: Ba/F3 (lentiviral transduction, monoclonal line)
Procedure, shortened: as §1

[9] = target: T7, Ba/F3 BCR-ABL1 A337V (Homo sapiens, UniProt P00519+P11274, A337V); experiment: Cell growth inhibitory activity assay (CellTiter-Glo), Ba/F3 BCR-ABL1 A337V cells; conditions: 72 h, CTG cell viability
T7 construct: BCR (N-terminal fusion partner of the oncoprotein); expressed in transfected cells; host or cells: Ba/F3 (lentiviral transduction, monoclonal line)
Experimental: (§2) In this assay, the Celltiter-Glo (CTG) kit provided by Promega was used, and it is a homogeneous cell viability assay method. The cell viability of cultured cells was measured by quantifying ATP. K562 cells were purchased from Nanjing Kebai, product number CBP60529; Ba/F3 parental cells were purchased from RIKEN BRC, product number RCB0805; other cells containing BCR-ABL1 WT, BCR-ABL1 T315I, BCR-ABL1 T315M, BCR-ABL1 Y253H/E255K, BCR-ABL1 E255V/T3151, BCR-ABL1 A424T, BCR-ABL1 A337V, BCR-ABL1 P465S, BCR-ABL1 V468F, and BCR-ABL1 I502L were all monoclonal engineered cell lines obtained by transducting Ba/F3 parental cells with the lentivirus plasmids containing WT or corresponding mutated BCR-ABL1.
(§3) The steps of cell viability assay are as follows: • a) Cells in logarithmic growth phase were collected. Cell suspension was prepared and the cells were counted. Concentration of the cells was calculated. • b) The cell suspension was diluted to the required concentration and then added to the middle wells of a 96-well plate, and PBS was added to the edge wells. The wells with no cells and only culture medium were used as blank controls. • c) In addition to the cell plate used for compound analysis, another 96-well plate was prepared as a T0 plate, and 3-6 blank wells and 3-6 cell wells were added. The next day, CTG was used to test the cell viability as the T0 viability value of the cells. • d) The cell plate was incubated at 37 °C in a 5% CO2 incubator overnight. • e) The next day, each concentration of a compound subjected to a gradient dilution was added, and the cell plate was incubated at 37 °C in a 5% CO2 incubator for 72 h. The wells with no compound and only 0.5% DMSO were used as positive controls for cell growth. • f) CTG reagent (CellTiter-Glo kit) was added according to the manufacturer's instructions to test the cell viability value. • g) The plate was read using Biotek cytation3.0 microplate reader and the data were exported. • h) IC50 was calculated using GraphPad Prism 7.0 software.
(§4) The IC50 (half-maximal inhibitory concentration) of the compound was obtained using the following nonlinear fitting formula: Y = Bottom + (Top−Bottom)/(1+10^(∧)((LogIC50−X)*HillSlope)) [formula] • X: Log value of the compound concentration • Y: Inhibition rate (% inhibition) • Top: Maximum response • Bottom: Baseline response • HillSlope: Slope of the curve
(§5) The formula for calculating cell inhibition rate (inhibition rate %) was: [formula]

[10] = target: T8, Ba/F3 BCR-ABL1 P465S (Homo sapiens, UniProt P00519+P11274, P465S); experiment: Cell growth inhibitory activity assay (CellTiter-Glo), Ba/F3 BCR-ABL1 P465S cells; conditions: 72 h, CTG cell viability
T8 construct: BCR (N-terminal fusion partner of the oncoprotein); expressed in transfected cells; host or cells: Ba/F3 (lentiviral transduction, monoclonal line)
Experimental: as §2, §3, §4, §5

[11] = target: T9, Ba/F3 BCR-ABL1 V468F (Homo sapiens, UniProt P00519+P11274, V468F); experiment: Cell growth inhibitory activity assay (CellTiter-Glo), Ba/F3 BCR-ABL1 V468F cells; conditions: 72 h, CTG cell viability
T9 construct: BCR (N-terminal fusion partner of the oncoprotein); expressed in transfected cells; host or cells: Ba/F3 (lentiviral transduction, monoclonal line)
Experimental: as §2, §3, §4, §5

[12] = target: T10, Ba/F3 BCR-ABL1 I502L (Homo sapiens, UniProt P00519+P11274, I502L); experiment: Cell growth inhibitory activity assay (CellTiter-Glo), Ba/F3 BCR-ABL1 I502L cells; conditions: 72 h, CTG cell viability
T10 construct: BCR (N-terminal fusion partner of the oncoprotein); expressed in transfected cells; host or cells: Ba/F3 (lentiviral transduction, monoclonal line)
Experimental: as §2, §3, §4, §5

Row | IC50 [1] | Structure (SMILES) | IC50 [2] | IC50 [3] | IC50 [4] | IC50 [5] | IC50 [6] | IC50 [7] | IC50 [8] | IC50 [9] | IC50 [10] | IC50 [11] | IC50 [12]
1 | ≤ 5 nM | CC(C)n1cc2c(n1)-c1cc(-c3cc(C(=O)Nc4ccc(OC(F)(F)Cl)cc4)cc4nc5n(c34)[C@H](C)COC5)cnc1C2 [T-48, (R)-N-(4-(chlorodifluoromethoxy)phenyl)-6-(2-isopropyl-2,4-dihydropyrazolo[3',4':3,4]cyclopenta[1,2-b]pyridin-7-yl)-4-methyl-3,4-dihydro-1H-benzo[4,5]imidazo[2,1-c][1,4]oxazine-8-carboxamide] | ≤ 5 nM | ≤ 5 nM | > 1000 nM | > 1000 nM | ≤ 5 nM | ≤ 5 nM | 5 to 50 nM | 5 to 50 nM | 50 to 1000 nM | 5 to 50 nM | 5 to 50 nM
2 | ≤ 5 nM | C[C@@H]1COCc2nc3cc(C(=O)Nc4ccc(OC(F)(F)Cl)cc4)cc(-c4cnc5c(c4)-c4nn(-c6cnccn6)cc4C5)c3n21 [T-71, (R)-N-(4-(chlorodifluoromethoxy)phenyl)-4-methyl-6-(2-(pyrazin-2-yl)-2,4-dihydropyrazolo[3',4':3,4]cyclopenta[1,2-b]pyridin-7-yl)-3,4-dihydro-1H-benzo[4,5]imidazo[2,1-c][1,4]oxazine-8-carboxamide] | ≤ 5 nM | ≤ 5 nM | 5 to 50 nM | > 1000 nM | ≤ 5 nM | ≤ 5 nM | 5 to 50 nM | 50 to 1000 nM | 50 to 1000 nM | 50 to 1000 nM | 5 to 50 nM
3 | ≤ 5 nM | C[C@@H]1COCc2nc3cc(C(=O)Nc4ccc(OC(F)(F)Cl)cc4)cc(-c4cnccn4)c3n21 [T-115, (R)-N-(4-(chlorodifluoromethoxy)phenyl)-4-methyl-6-(pyrazin-2-yl)-3,4-dihydro-1H-benzo[4,5]imidazo[2,1-c][1,4]oxazine-8-carboxamide] | ≤ 5 nM | 5 to 50 nM | > 1000 nM | > 1000 nM | 5 to 50 nM | 5 to 50 nM | 50 to 1000 nM | 50 to 1000 nM | 50 to 1000 nM | 50 to 1000 nM | 50 to 1000 nM
4 | ≤ 5 nM | C[C@@H]1COCc2nc3cc(C(=O)Nc4ccc(OC(F)(F)Cl)cc4)cc(-c4cnc5c(c4)-c4nn(CC(F)(F)F)cc4C5)c3n21 [T-49, (R)-N-(4-(chlorodifluoromethoxy)phenyl)-4-methyl-6-(2-(2,2,2-trifluoroethyl)-2,4-dihydropyrazolo[3',4':3,4]cyclopenta[1,2-b]pyridin-7-yl)-3,4-dihydro-1H-benzo[4,5]imidazo[2,1-c][1,4]oxazine-8-carboxamide] | ≤ 5 nM | ≤ 5 nM | 50 to 1000 nM | > 1000 nM | ≤ 5 nM | ≤ 5 nM | ≤ 5 nM | 5 to 50 nM | 5 to 50 nM | 5 to 50 nM | 5 to 50 nM
